Laboratory results as given in publication PMC4648050, “Discovery of Inhibitors of Trypanosoma brucei by Phenotypic Screening of a Focused Protein Kinase Library” (Chemmedchem, 2015).

Legend:
Assay type in all cases: biochemical, human/mammalian
PRK2 = PRK2 (Homo sapiens, UniProt Q16513); experiment: Kinase panel: PRK2; conditions: compound at 10 μM, read-out: % of activity respect of the control
Description: (§1) The DDU kinase-focused compound set contains lead-like scaffolds that are designed to target protein kinases; they have kinase hinge binding motifs. Four of the 1H-imidazopyrazinones were screened against a human/mammalian kinase panel at the University of Dundee (http://www.kinase-screen.mrc.ac.uk) at a concentration of 10 μM. At the time of testing the panel contained 79 mammalian kinases selected to provide a broad coverage of the mammalian kinome (∼500 kinases in the human genome).[3] None of the compounds were active against any of the kinases at 10 μM.

CSK = CSK (Homo sapiens, UniProt P41240); experiment: Kinase panel: CSK; conditions: compound at 10 μM, read-out: % of activity respect of the control
Description: as §1

PHK = experiment: Kinase panel: PHK; conditions: compound at 10 μM
Description: as §1

ROCK 2 = ROCK 2 (Homo sapiens, UniProt O75116); experiment: Kinase panel: ROCK 2; conditions: compound at 10 μM, read-out: % of activity respect of the control
Description: as §1

SYK = SYK (Homo sapiens, UniProt P43405); experiment: Kinase panel: SYK; conditions: compound at 10 μM, read-out: % of activity respect of the control
Description: as §1

PRAK = molecular target: T1, PRAK (Homo sapiens, UniProt Q8IW41); experiment: Kinase panel: PRAK; conditions: compound at 10 μM, read-out: % of activity respect of the control
T1 sequence (Q8IW41 1-473): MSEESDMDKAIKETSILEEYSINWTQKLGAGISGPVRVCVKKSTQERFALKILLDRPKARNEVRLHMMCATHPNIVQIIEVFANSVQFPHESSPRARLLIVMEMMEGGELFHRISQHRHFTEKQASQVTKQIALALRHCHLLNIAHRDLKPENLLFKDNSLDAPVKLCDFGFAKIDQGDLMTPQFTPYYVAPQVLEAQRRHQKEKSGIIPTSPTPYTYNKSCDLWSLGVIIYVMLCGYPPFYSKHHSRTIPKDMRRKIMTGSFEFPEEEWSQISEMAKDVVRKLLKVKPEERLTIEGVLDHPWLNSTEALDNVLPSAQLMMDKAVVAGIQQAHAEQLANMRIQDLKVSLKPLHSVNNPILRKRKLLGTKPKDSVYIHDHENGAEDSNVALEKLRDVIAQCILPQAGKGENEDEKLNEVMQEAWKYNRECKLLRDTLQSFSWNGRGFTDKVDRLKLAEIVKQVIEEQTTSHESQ
Description: as §1

TBK1 (DU12569) = molecular target: T2, TBK1 (DU12569) (Homo sapiens, UniProt Q9UHD2); experiment: Kinase panel: TBK1 (DU12569); conditions: compound at 10 μM, read-out: % of activity respect of the control
T2 sequence (Q9UHD2 1-729): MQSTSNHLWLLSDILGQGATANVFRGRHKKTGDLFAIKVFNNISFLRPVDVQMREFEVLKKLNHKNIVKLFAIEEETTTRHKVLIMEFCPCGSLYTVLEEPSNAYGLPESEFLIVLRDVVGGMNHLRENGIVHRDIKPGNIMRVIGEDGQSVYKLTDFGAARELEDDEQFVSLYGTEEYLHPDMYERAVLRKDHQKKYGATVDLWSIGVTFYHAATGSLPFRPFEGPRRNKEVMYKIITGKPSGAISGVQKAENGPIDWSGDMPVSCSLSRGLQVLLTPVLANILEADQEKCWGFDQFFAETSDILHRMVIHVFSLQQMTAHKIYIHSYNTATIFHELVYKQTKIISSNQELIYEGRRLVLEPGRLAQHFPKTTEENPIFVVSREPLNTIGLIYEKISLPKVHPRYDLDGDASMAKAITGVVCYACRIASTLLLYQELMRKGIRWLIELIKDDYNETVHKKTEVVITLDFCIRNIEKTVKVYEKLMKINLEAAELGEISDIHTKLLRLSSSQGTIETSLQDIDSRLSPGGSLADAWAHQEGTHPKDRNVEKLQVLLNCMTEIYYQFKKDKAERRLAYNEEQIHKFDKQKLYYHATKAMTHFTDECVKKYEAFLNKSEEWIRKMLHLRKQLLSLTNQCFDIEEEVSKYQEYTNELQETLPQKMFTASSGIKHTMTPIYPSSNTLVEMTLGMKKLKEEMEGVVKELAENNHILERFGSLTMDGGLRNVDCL
Description: as §1

MARK3 = MARK3 (Homo sapiens, UniProt P27448); experiment: Kinase panel: MARK3; conditions: compound at 10 μM, read-out: % of activity respect of the control
Description: as §1

VEG-FR = VEG-FR (Homo sapiens, UniProt P17948); experiment: Kinase panel: VEG-FR; conditions: compound at 10 μM, read-out: % of activity respect of the control
Description: as §1

MELK = MELK (Homo sapiens, UniProt Q14680); experiment: Kinase panel: MELK; conditions: compound at 10 μM, read-out: % of activity respect of the control
Description: as §1

DYRK2 = molecular target: T3, DYRK2 (Homo sapiens, UniProt Q92630); experiment: Kinase panel: DYRK2; conditions: compound at 10 μM, read-out: % of activity respect of the control
T3 sequence (Q92630 1-601): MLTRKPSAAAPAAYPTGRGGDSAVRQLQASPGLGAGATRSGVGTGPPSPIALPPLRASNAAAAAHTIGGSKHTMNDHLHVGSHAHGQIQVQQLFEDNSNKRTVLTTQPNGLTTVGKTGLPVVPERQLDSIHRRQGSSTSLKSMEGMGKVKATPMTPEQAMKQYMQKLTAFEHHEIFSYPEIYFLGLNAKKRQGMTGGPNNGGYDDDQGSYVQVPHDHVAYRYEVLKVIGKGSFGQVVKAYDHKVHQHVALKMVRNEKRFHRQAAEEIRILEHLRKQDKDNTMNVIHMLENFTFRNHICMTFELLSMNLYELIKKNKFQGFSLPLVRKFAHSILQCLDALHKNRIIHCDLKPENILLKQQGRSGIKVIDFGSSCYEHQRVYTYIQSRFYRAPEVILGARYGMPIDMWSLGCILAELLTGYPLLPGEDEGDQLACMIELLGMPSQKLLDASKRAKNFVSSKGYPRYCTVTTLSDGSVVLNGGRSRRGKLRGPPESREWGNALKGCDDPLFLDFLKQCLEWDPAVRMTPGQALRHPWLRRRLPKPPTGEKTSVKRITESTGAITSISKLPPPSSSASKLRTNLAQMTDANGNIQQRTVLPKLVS
Description: as §1

Aurora B = Aurora B (Homo sapiens, UniProt Q96GD4); experiment: Kinase panel: Aurora B; conditions: compound at 10 μM, read-out: % of activity respect of the control
Description: as §1

Sequence of MELK (Q14680 whole entry): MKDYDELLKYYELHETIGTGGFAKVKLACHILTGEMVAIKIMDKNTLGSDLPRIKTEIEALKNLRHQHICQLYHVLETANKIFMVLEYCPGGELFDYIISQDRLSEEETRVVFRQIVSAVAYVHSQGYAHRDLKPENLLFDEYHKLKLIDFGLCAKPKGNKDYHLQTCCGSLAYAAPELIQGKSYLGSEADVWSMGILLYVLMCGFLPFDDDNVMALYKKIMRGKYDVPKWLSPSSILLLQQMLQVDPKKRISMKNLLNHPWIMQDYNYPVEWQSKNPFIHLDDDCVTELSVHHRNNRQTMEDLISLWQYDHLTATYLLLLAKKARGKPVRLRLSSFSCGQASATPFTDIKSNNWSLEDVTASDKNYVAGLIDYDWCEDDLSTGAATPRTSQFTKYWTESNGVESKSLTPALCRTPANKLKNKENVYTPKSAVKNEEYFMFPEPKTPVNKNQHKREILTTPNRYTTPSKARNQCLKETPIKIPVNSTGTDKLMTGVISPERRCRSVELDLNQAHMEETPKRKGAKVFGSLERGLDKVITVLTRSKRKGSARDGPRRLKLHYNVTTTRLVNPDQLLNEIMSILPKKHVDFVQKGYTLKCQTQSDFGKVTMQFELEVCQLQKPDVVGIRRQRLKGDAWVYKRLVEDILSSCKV
Sequence of Aurora B (Q96GD4 whole entry): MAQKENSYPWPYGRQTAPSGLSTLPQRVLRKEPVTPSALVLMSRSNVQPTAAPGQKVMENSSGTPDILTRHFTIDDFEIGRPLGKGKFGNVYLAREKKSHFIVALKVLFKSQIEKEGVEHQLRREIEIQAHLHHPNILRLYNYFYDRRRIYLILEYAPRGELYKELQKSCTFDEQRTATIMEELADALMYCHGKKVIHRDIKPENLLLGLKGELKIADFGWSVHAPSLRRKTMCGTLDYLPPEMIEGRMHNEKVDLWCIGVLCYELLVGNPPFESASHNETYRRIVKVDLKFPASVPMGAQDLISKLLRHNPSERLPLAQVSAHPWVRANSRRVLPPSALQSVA
Sequence of ROCK 2 (O75116 whole entry): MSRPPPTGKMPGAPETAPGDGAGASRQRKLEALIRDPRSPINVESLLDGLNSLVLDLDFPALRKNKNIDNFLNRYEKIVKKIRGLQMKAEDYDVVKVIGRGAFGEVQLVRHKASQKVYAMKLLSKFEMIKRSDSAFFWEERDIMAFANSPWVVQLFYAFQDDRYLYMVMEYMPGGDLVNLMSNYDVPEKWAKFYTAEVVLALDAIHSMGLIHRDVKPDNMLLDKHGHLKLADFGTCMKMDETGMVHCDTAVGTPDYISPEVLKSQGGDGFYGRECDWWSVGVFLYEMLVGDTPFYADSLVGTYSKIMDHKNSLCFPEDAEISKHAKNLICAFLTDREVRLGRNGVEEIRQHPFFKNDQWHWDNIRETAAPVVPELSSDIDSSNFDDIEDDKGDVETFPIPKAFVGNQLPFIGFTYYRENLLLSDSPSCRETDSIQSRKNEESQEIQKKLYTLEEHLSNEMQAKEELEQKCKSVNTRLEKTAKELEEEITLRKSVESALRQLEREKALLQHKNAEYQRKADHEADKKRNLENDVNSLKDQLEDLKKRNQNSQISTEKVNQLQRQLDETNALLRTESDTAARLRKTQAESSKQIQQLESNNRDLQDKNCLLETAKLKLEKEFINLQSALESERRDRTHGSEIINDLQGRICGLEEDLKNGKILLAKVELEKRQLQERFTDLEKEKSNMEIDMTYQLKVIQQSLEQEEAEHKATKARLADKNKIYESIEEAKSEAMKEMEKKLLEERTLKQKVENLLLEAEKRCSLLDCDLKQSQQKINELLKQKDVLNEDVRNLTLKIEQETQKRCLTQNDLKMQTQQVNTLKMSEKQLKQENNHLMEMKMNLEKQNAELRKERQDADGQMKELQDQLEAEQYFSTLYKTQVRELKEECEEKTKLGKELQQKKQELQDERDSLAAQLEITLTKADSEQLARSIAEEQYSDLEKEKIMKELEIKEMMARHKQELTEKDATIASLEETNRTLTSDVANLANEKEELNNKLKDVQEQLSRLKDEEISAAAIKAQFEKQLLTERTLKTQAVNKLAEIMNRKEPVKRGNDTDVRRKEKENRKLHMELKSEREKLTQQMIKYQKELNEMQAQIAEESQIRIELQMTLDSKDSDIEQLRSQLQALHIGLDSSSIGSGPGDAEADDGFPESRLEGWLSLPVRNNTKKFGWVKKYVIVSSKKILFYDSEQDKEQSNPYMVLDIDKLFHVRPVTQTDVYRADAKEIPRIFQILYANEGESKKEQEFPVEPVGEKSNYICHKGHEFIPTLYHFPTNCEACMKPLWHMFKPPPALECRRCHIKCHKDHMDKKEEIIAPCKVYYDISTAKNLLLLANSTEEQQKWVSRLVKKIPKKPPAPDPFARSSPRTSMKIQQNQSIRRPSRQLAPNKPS
Sequence of CSK (P41240 whole entry): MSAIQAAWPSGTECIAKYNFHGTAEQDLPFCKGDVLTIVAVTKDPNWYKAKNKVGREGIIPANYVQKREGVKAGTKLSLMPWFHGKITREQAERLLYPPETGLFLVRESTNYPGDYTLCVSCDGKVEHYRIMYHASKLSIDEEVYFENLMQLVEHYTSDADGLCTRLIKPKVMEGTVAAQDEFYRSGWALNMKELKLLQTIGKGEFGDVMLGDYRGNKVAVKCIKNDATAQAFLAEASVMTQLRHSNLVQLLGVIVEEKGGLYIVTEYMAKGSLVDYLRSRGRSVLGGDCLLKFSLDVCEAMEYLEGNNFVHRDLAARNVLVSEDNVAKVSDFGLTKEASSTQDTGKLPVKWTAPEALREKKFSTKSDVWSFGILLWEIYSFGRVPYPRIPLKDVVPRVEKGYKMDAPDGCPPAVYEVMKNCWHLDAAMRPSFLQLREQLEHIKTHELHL
Sequence of VEG-FR (P17948 27-1338): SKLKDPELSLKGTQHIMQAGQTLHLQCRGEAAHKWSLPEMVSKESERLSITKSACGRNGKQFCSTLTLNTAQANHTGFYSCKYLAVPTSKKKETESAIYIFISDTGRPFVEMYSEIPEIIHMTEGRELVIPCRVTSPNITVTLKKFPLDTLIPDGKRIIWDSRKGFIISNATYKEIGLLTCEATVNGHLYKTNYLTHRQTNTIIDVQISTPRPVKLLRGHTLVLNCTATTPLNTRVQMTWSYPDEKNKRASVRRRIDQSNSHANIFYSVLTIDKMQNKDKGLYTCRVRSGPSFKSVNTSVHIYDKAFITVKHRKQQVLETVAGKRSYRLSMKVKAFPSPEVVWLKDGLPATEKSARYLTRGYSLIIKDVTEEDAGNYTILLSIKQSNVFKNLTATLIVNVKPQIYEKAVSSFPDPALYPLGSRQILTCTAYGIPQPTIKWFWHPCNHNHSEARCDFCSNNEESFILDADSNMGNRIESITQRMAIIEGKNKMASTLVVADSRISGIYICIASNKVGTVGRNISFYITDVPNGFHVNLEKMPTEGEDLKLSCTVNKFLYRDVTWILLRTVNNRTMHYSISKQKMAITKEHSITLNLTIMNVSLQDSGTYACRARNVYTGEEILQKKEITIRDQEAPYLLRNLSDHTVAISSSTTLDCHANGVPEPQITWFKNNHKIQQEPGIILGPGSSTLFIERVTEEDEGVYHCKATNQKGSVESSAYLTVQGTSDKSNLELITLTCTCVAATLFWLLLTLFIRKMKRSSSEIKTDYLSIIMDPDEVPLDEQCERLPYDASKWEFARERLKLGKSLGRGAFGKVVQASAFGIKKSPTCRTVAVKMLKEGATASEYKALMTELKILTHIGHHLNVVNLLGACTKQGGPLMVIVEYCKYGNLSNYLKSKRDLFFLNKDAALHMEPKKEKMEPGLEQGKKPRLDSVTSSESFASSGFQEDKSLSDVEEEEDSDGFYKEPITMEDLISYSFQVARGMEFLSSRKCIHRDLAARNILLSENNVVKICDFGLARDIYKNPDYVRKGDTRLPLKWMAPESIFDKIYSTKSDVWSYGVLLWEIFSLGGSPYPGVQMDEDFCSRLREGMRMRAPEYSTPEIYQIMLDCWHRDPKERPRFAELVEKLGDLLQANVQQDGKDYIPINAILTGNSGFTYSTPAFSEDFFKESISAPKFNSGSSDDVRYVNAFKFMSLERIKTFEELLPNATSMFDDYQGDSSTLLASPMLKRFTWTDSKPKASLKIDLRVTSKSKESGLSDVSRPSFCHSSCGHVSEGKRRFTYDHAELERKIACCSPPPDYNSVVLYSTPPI
Sequence of MARK3 (P27448 whole entry): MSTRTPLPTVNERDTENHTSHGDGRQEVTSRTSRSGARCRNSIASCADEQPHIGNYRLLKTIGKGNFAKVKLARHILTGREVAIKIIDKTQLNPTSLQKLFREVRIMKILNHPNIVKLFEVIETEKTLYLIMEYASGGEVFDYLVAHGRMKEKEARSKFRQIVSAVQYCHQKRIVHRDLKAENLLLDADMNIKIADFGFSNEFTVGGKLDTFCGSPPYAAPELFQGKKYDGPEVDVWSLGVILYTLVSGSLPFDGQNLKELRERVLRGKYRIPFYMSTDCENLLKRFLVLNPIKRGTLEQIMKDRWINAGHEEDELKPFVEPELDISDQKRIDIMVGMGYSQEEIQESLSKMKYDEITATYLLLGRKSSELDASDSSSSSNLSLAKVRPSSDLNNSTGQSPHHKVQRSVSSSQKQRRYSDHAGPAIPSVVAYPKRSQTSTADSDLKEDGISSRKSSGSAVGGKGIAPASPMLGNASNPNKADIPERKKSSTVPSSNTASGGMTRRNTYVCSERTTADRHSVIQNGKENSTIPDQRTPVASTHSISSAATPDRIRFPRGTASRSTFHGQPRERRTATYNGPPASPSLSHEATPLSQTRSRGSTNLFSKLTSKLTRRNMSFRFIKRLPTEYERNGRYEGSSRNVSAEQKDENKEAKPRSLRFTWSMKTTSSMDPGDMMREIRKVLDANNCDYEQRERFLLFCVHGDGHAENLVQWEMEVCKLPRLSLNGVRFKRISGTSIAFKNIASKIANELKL

`CC(c1ccccc1)n1c(=O)[nH]c2ncc(-c3ccc(F)cc3)nc21` (stereo not drawn) [Compound 1] was tested, and the remaining activity at 10 µM (PRK2) was 111%, the remaining activity at 10 µM (CSK) was 100% and the “% of activity respect of the control” value (PHK) was 103%. The remaining activity at 10 µM (ROCK 2) was 105%, the remaining activity at 10 µM (SYK) was 97% and the remaining activity at 10 µM (PRAK) was 103%. It also gave a remaining activity at 10 µM (TBK1 (DU12569)) of 95%, a remaining activity at 10 µM (MARK3) of 110% and a remaining activity at 10 µM (VEG-FR) of 117%. It also gave a remaining activity at 10 µM (MELK) of 118%, a remaining activity at 10 µM (DYRK2) of 100% and a remaining activity at 10 µM (Aurora B) of 117%.

With `O=c1[nH]c2ncc(-c3ccc(F)cc3)nc2n1CC1CC1` [Compound 10] the remaining activity at 10 µM (PRK2) was 99%, the remaining activity at 10 µM (CSK) was 93% and the “% of activity respect of the control” value (PHK) was 97%. It also gave a remaining activity at 10 µM (ROCK 2) of 78%, a remaining activity at 10 µM (SYK) of 98% and a remaining activity at 10 µM (PRAK) of 99%. The remaining activity at 10 µM (TBK1 (DU12569)) was 86%, the remaining activity at 10 µM (MARK3) was 97% and the remaining activity at 10 µM (VEG-FR) was 98%. The remaining activity at 10 µM (MELK) was 125%, the remaining activity at 10 µM (DYRK2) was 94% and the remaining activity at 10 µM (Aurora B) was 93%.

For `O=c1[nH]c2ncc(-c3ccc(F)cc3)nc2n1C1CCCCC1` [Compound 12, 1-Cyclohexyl-6-(4-fluorophenyl)-1H-imidazo[4,5-b]pyrazin-2(3H)-one], the remaining activity at 10 µM (PRK2) was 112%, the remaining activity at 10 µM (CSK) was 90% and the “% of activity respect of the control” value (PHK) was 110%. It also gave a remaining activity at 10 µM (ROCK 2) of 84%, a remaining activity at 10 µM (SYK) of 100% and a remaining activity at 10 µM (PRAK) of 99%. The remaining activity at 10 µM (TBK1 (DU12569)) was 90%, the remaining activity at 10 µM (MARK3) was 98% and the remaining activity at 10 µM (VEG-FR) was 107%. It also gave a remaining activity at 10 µM (MELK) of 110%, a remaining activity at 10 µM (DYRK2) of 99% and a remaining activity at 10 µM (Aurora B) of 85%.

For `C[C@H](c1ccccc1)n1c(=O)[nH]c2ncc(-c3ccccc3)nc21` [Compound 14, (R)-6-Phenyl-1-(1-phenylethyl)-1H-imidazo[4,5-b]pyrazin-2(3H)-one], the remaining activity at 10 µM (PRK2) was 97%, the remaining activity at 10 µM (CSK) was 77% and the “% of activity respect of the control” value (PHK) was 94%. For the same molecule, the remaining activity at 10 µM (ROCK 2) was 85%, the remaining activity at 10 µM (SYK) was 84% and the remaining activity at 10 µM (PRAK) was 98%. The remaining activity at 10 µM (TBK1 (DU12569)) was 78%, the remaining activity at 10 µM (MARK3) was 100% and the remaining activity at 10 µM (VEG-FR) was 73%. It also gave a remaining activity at 10 µM (MELK) of 100%, a remaining activity at 10 µM (DYRK2) of 89% and a remaining activity at 10 µM (Aurora B) of 99%.
